In US10287269B2, “Pyrazolyl pyrimidinone compounds as PDE2 inhibitors” (Merck Sharp & Dohme Corp., priority 2015, dated 2019):
Like-named read-outs stand apart in the source and are kept apart here.

Target: T1, Rhesus PDE2A3 (Macaca mulatta, UniProt B3VTJ2)
T1 construct: made in house; host or cells: AD293 cells, transient transfection, pcDNA3.3-TOPO; lysate supernatant used as enzyme
T1 sequence (B3VTJ2 1-941): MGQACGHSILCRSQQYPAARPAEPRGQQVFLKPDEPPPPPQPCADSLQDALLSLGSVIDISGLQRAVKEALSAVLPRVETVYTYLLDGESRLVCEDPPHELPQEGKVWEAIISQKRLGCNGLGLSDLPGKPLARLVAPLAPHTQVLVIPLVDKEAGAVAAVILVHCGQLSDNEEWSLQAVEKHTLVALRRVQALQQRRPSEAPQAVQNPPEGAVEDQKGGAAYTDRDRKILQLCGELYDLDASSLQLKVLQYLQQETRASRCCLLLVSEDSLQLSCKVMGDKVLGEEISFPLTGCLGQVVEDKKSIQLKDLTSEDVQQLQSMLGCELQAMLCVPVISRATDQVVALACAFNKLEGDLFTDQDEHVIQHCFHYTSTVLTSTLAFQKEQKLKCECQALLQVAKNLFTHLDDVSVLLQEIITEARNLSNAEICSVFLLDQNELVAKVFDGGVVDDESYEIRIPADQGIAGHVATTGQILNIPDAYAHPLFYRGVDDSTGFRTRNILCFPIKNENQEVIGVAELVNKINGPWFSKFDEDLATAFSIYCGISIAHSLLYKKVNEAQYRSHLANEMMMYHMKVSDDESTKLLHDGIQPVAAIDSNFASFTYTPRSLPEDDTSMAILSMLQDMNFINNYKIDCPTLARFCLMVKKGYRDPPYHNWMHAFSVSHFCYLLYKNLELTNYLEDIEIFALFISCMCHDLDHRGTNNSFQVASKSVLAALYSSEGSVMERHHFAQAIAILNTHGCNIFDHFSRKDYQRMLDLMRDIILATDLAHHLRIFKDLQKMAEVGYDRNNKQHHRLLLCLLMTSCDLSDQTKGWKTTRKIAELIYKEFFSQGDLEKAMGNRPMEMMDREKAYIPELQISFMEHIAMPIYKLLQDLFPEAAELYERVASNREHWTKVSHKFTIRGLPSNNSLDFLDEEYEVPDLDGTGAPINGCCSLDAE
Experiment: PDE2 fluorescence polarization (IMAP FP) inhibition assay, rhesus enzyme
Type: biochemical, rhesus macaque
Method in brief: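 Lysate of AD293 cells transiently expressing rhesus PDE2A3, diluted for ~20% substrate conversion, with 50 nM FAM-cAMP and 1 uM cGMP activator in pH 7.2 Tris/MgCl2 buffer, 60 min at room temperature.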

[1] = Lab A, read-out: Rhesus PDE2 Ki (nM) Lab A
[2] = Lab B, read-out: Rhesus PDE2 Ki (nM) Lab B

| Ki [1] | Ki [2] | Compound |
| --- | --- | --- |
|  | 143 nM | Cc1nc(-c2cnn(C(C)c3ccc(S(F)(F)(F)(F)F)cc3)c2)cc(=O)[nH]1 (single isomer, unassigned) [Example 62, (R)- or (S)-2-methyl-6-(1-(1-(4-(pentafluorosulfanyl)phenyl)ethyl)-1H-pyrazol-4-yl)pyrimidin-4(3H)-one] |
|  | 99.3 nM | Cc1nc(-c2cnn(C(C)c3ccc(S(F)(F)(F)(F)F)cc3)c2)cc(=O)[nH]1 (single isomer, unassigned) [Example 63, (S)- or (R)-2-methyl-6-(1-(1-(4-(pentafluorosulfanyl)phenyl)ethyl)-1H-pyrazol-4-yl)pyrimidin-4(3H)-one] |
| 6.2 nM |  | Cc1nc(-c2cnn(C(C)c3ccc(C(F)(F)F)cc3Cl)c2)cc(=O)[nH]1 (single isomer, unassigned) [Example 83, (R)- or (S)-6-(1-(1-(2-chloro-4-(trifluoromethyl)phenyl)ethyl)-1H-pyrazol-4-yl)-2-methylpyrimidin-4(3H)-one] |
| 14.4 nM |  | CCc1nc(-c2cnn(C(C)c3ccc(C(F)(F)F)cc3F)c2)cc(=O)[nH]1 (single isomer, unassigned) [Example 85, (R)- or (S)-2-ethyl-6-(1-(1-(2-fluoro-4-(trifluoromethyl)phenyl)ethyl)-1H-pyrazol-4-yl)pyrimidin-4(3H)-one] |
| 60 nM |  | Cc1nc(-c2cnn(C(C)c3ccc(C4CC4)cc3F)c2)cc(=O)[nH]1 (single isomer, unassigned) [Example 91, (R)- or (S)-6-(1-(1-(4-cyclopropyl-2-fluorophenyl)ethyl)-1H-pyrazol-4-yl)-2-methylpyrimidin-4(3H)-one] |
| 40.8 nM |  | Cc1nc(-c2cnn(C(C)c3ccc(C4CC4)cc3C)c2)cc(=O)[nH]1 (single isomer, unassigned) [Example 94, (S)- or (R)-6-(1-(1-(4-cyclopropyl-2-methylphenyl)ethyl)-1H-pyrazol-4-yl)-2-methylpyrimidin-4(3H)-one] |
| 10.7 nM |  | CCc1ccc(C(C)n2cc(-c3cc(=O)[nH]c(C)n3)cn2)c(Cl)c1 (single isomer, unassigned) [Example 99, (R)- or (S)-6-(1-(1-(2-chloro-4-ethylphenyl)ethyl)-1H-pyrazol-4-yl)-2-methylpyrimidin-4(3H)-one] |
| 25.4 nM |  | CCc1ccc(C(C)n2cc(-c3cc(=O)[nH]c(C)n3)cn2)c(F)c1 (single isomer, unassigned) [Example 101, (R)- or (S)-6-(1-(1-(4-ethyl-2-fluorophenyl)ethyl)-1H-pyrazol-4-yl)-2-methylpyrimidin-4(3H)-one] |
|  | 130 nM | Cc1nc(-c2cnn(C(C)c3ccc(OC(F)(F)F)cc3)c2)cc(=O)[nH]1 (single isomer, unassigned) [Example 127, (R)- or (S)-2-methyl-6-(1-(1-(4-(trifluoromethoxy)phenyl)ethyl)-1H-pyrazol-4-yl)pyrimidin-4(3H)-one] |
|  | 109 nM | Cc1nc(-c2cnn(C(C)c3ccc(C(F)(F)F)cc3F)c2)cc(=O)[nH]1 (single isomer, unassigned) [Example 135, (R)- or (S)-6-(1-(1-(2-fluoro-4-(trifluoromethyl)phenyl)ethyl)-1H-pyrazol-4-yl)-2-methylpyrimidin-4(3H)-one] |
| 18.3 nM | 11.1 nM | Cc1nc(-c2cnn(C(C)c3ccc(C(F)(F)F)cc3F)c2)cc(=O)[nH]1 (single isomer, unassigned) [Example 136, (S)- or (R)-6-(1-(1-(2-fluoro-4-(trifluoromethyl)phenyl)ethyl)-1H-pyrazol-4-yl)-2-methylpyrimidin-4(3H)-one] |

More lines, now with the values behind:

| Compound | Ki [1] | Ki [2] |
| --- | --- | --- |
| COc1ccc(Cc2nc(-c3cnn(C(C)c4ccc(C(F)(F)F)cc4)c3)cc(=O)[nH]2)cc1OC (single isomer, unassigned) [Example 61, (S)- or (R)-2-(3,4-dimethoxybenzyl)-6-(1-(1-(4-(trifluoromethyl)phenyl)ethyl)-1H-pyrazol-4-yl)pyrimidin-4(3H)-one] | 2 nM | 1.8 nM |
| COc1ccc(Cc2nc(-c3cnn(C(C)c4ccc(S(F)(F)(F)(F)F)cc4)c3)cc(=O)[nH]2)cc1OC (single isomer, unassigned) [Example 64, (R)- or (S)-2-(3,4-dimethoxybenzyl)-6-(1-(1-(4-(pentafluorosulfanyl)phenyl)ethyl)-1H-pyrazol-4-yl)pyrimidin-4(3H)-one] | 7.2 nM | 3.5 nM |
| COc1ccc(Cc2nc(-c3cnn(C(C)c4ccc(S(F)(F)(F)(F)F)cc4)c3)cc(=O)[nH]2)cc1OC (single isomer, unassigned) [Example 65, (S)- or (R)-2-(3,4-dimethoxybenzyl)-6-(1-(1-(4-(pentafluorosulfanyl)phenyl)ethyl)-1H-pyrazol-4-yl)pyrimidin-4(3H)-one 4(3H)-one] | 22 nM | 9.9 nM |
| COc1ccc(Cc2nc(-c3cnn(C(C)c4ccc(C(F)(F)F)cc4F)c3)cc(=O)[nH]2)cc1OC (single isomer, unassigned) [Example 66, (R)- or (S)-2-(3,4-dimethoxybenzyl)-6-(1-(1-(2-fluoro-4-(trifluoromethyl)phenyl)ethyl)-1H-pyrazol-4-yl)pyrimidin-4(3H)-one] |  | 0.8 nM |
| COc1ccc(Cc2nc(-c3cnn(C(C)c4ccc(C(F)(F)F)cc4F)c3)cc(=O)[nH]2)cc1OC (single isomer, unassigned) [Example 67] | 0.2 nM | 0.1 nM |
| Cc1nc(-c2ccn(C(C)c3ccc(C(F)(F)F)cc3)n2)cc(=O)[nH]1 (single isomer, unassigned) [Example 77, (R)- or (S)-2-methyl-6-(1-(1-(4-(trifluoromethyl)phenyl)ethyl)-1H-pyrazol-3-yl)pyrimidin-4(3H)-one] |  | 542 nM |
| Cc1nc(-c2ccn(C(C)c3ccc(C(F)(F)F)cc3)n2)cc(=O)[nH]1 (single isomer, unassigned) [Example 78, (S)- or (R)-2-methyl-6-(1-{(1R)-1-[4-(trifluoromethyl)phenyl]ethyl}-1H-pyrazol-3-yl)pyrimidin-4(3H)-one] |  | 318 nM |
| Cc1nc(-c2cnn(C(C)c3ccc(C(F)(F)F)cc3)c2C)cc(=O)[nH]1 (single isomer, unassigned) [Example 81, (R)- or (S)-2-methyl-6-(5-methyl-1-(1-(4-(trifluoromethyl)phenyl)ethyl)-1H-pyrazol-4-yl)pyrimidin-4(3H)-one] |  | 232 nM |
| Cc1nc(-c2cnn(C(C)c3ccc(C(F)(F)F)cc3)c2C)cc(=O)[nH]1 (single isomer, unassigned) [Example 82, (S)- or (R)-2-methyl-6-(5-methyl-1-{(1R)-1-[4-(trifluoromethyl)phenyl]ethyl}-1H-pyrazol-4-yl)pyrimidin-4(3H)-one] |  | 192 nM |
| COc1ccc(Cc2nc(-n3ccc(C(C)c4ccc(C(F)(F)F)cc4)n3)cc(=O)[nH]2)cc1OC (single isomer, unassigned) [Example 133, (R)- or (S)-2-(3,4-dimethoxybenzyl)-6-(3-(1-(4-(trifluoromethyl)phenyl)ethyl)-1H-pyrazol-1-yl)pyrimidin-4(3H)-one] |  | 64.8 nM |
| COc1ccc(Cc2nc(-n3ccc(C(C)c4ccc(C(F)(F)F)cc4)n3)cc(=O)[nH]2)cc1OC (single isomer, unassigned) [Example 134, (R)- or (S)-2-(3,4-dimethoxybenzyl)-6-(3-(1-(4-(trifluoromethyl)phenyl)ethyl)-1H-pyrazol-1-yl)pyrimidin-4(3H)-one] |  | 110 nM |
| COc1ccc(Cc2nc(-c3cnn(C(C)c4ccc(C(F)(F)F)cc4F)c3)cc(=O)[nH]2)cc1 (single isomer, unassigned) [Example 138, (R)- or (S)-6-(1-(1-(2-fluoro-4-(trifluoromethyl)phenyl)ethyl)-1H-pyrazol-4-yl)-2-(4-methoxybenzyl)pyrimidin-4(3H)-one] | 5.6 nM | 1.6 nM |
| COc1ccc(Cc2nc(-c3cnn(C(C)c4ccc(C(F)(F)F)cc4F)c3)cc(=O)[nH]2)cc1 (single isomer, unassigned) [Example 139, (S)- or (R)-6-(1-(1-(2-fluoro-4-(trifluoromethyl)phenyl)ethyl)-1H-pyrazol-4-yl)-2-(4-methoxybenzyl)pyrimidin-4(3H)-one] | 52.1 nM | 19.1 nM |
| COc1cccc(Cc2nc(-c3cnn(C(C)c4ccc(C(F)(F)F)cc4F)c3)cc(=O)[nH]2)c1 (single isomer, unassigned) [Example 140, (R)- or (S)-6-(1-(1-(2-fluoro-4-(trifluoromethyl)phenyl)ethyl)-1H-pyrazol-4-yl)-2-(3-methoxybenzyl)pyrimidin-4(3H)-one] | 3 nM | 0.8 nM |
